According to publication PMC7765409 (International Journal of Molecular Sciences, 2020):

Tests used:
hiPSC-Hep = experiment: valid cell count (Hoechst nuclei) in hiPSC-Hep, multiplexed viability readout; format: cell-based; conditions: Homo sapiens; for IC50: 10-point dose-response, multiplexed with lipid readout
Procedure: To induce hepatic triglycerides (TAG) accumulation, before staining, cells were treated with 20 μL of 2× FA mixture, consisting of different proportions of oleic acid (OA-BSA, 25 µM, Sigma, #O3008), palmitic acid (PA-BSA, 200 µM, Agilent Technologies, #102720100) and thapsigargin (TG, 1 µM, Abcam, #120286) with a total volume of 40 μL/well. The TG/FA mixture was dispensed with BioTek^TM Microflo^TM select dispenser (#7170011, BioTek Instruments) and incubated for 18 h. Next, to label TAG accumulation stored into cytoplasmic lipid droplets, upon treatment, living cells were washed two times with warm Dulbecco’s Phosphate-Buffered Saline 1X (PBS, Corning, #21-031CV) with a handheld 384-channel electronic pipette device and then incubated for 15 min with a lipophilic dye, BODIPY 493/503 (8 ug/mL Life technologies, #D3922-green), in PBS at 37 °C. BODIPY (493/503) has become the standard dye utilized by scientists to study lipid droplets in live cells. After three washes with PBS cells were fixed with 4% paraformaldehyde methanol-free (PFA, Electron Microscopy Science, #15710) in PBS for 15 min at room temperature (RT). Cell health was monitored by Hoechst 33342 (10 ug/mL, Molecular Probe, #H21492) staining in PBS for nuclear count. After TAG staining the 384-assay plates were loaded in an automated confocal microscope with Opera High Content Imaging System (PerkinElmer, Waltham, MA, USA). Dyes were excited and images were captured on the Hoechst 3342 and Alexa Fluor 488 channels and signals were collected with a long pass filter 410 and 505 nm, for nuclei and TAG, respectively, at objective 20× air objective for HCA. To capture enough cells (>600) for the analysis, eight fields per well were imaged. Hoechst 33342 fluorescence was used to identify the nuclear region and cell counts. To assess intracellular fat deposits, BODIPY 493/503 fluorescence intensity was measured inside the cytoplasm region. […]

C/EBPα mRNA expression = experiment: RT-qPCR gene expression in TG/FA-treated hiPSC-Hep; format: cell-based, human; conditions: 24 h pre-treatment then TG/FA 18 h
Procedure: (§1) To explore the signaling partners triggered or altered by the drugs, we performed gene expression RT-qPCR. The hiPSC-Hep were pre-treated in a 24-well plate with the three compounds shown in Figure 7 for 24 h followed by TG/FA challenge for an additional 18 h and RNA from each treatment well was isolated. The pre-treatment paradigm was chosen to stay consistent with how the original HTS was performed. We analyzed several target gene expression levels in the C/EBP-EP300 pathway including CDK2, CDK4, C/EBPα and C/EBPβ, EP300, and diacylglycerol acyltransferase 2 (DGAT2).
(§2) RNA was isolated from hiPSC-derived hepatocytes using the RNeasy kit (Qiagen, Frederick) and subsequently subjected to DNase digestion (Qiagen). Total RNA was quantified using NanoDrop 8000 (Thermo Scientific). The quality of total RNA was assessed by the Agilent Bioanalyzer Nano chip (Agilent Technologies) and RNA integrity number (RIN) ranged from 9.7 to 10. Reverse transcription was performed using the high capacity cDNA reverse transcription kit (Applied Biosystems, Foster City, CA, USA) according to the manufacturer’s recommendation and the complementary DNA (cDNA) obtained used for real-time quantitative PCR. The reaction mixture (10 μL), containing 1 μL of cDNA template, 0.5 μL each of primer and probe (20×, Thermo Fisher Scientific) mix for the gene of interest plus the reference gene and TaqMan Universal PCR master mix (Applied Biosystems) was added to the opaque white 384-well plates and amplified as follows: after 2 min of initial incubation at 50 °C and 10 min of initial denaturation at 95 °C, 45 cycles at 95 °C for 15 s, 60 °C for 1 min for annealing and 1 sec at 72 °C for final extension were performed. Assays were designed to have primers/probes to span exon–exon junctions (Table S1). Direct detection of PCR products was monitored by measuring the fluorescence produced by the result of TaqMan probe hydrolysis after every cycle. All experiments were carried out in triplicate in a LightCycler 480 thermocycler (Roche Diagnostic). Relative gene expression from qPCR data between groups of samples were assessed using a ∆∆Cq method. To adjust for variations in the cDNA synthesis each gene was normalized to that of hypoxanthine phosphoribosyl transferase 1 (HPRT1] or GAPDH mRNA.

CDK2 gene expression = experiment: RT-qPCR gene expression in TG/FA-treated hiPSC-Hep; format: cell-based, human; conditions: 24 h pre-treatment then TG/FA 18 h; relative to TG/FA
Procedure: as §1, §2

CDK4 gene expression = experiment: RT-qPCR gene expression in TG/FA-treated hiPSC-Hep; format: cell-based, human; conditions: 24 h pre-treatment then TG/FA 18 h, relative to TG/FA
Procedure: as §1, §2

EP300 gene expression = experiment: RT-qPCR gene expression in TG/FA-treated hiPSC-Hep; format: cell-based, human; conditions: 24 h pre-treatment then TG/FA 18 h; relative to TG/FA
Procedure: as §1, §2

CDK1 = system: CDK1; design: method as in AstraZeneca data repository; conditions: median log of IC50/EC50/Ki/Kd annotations, highest value; ref AstraZeneca data repository; cited from earlier work
CDK2 = system: CDK2; design: method as in AstraZeneca data repository; conditions: median log of IC50/EC50/Ki/Kd annotations, highest value; ref AstraZeneca data repository; cited from earlier work

Cc1ncc(-c2nc(Nc3ccc(N4CCN(C(=O)CO)CC4)cc3)ncc2F)n1C(C)C [C3]
IC50 (hiPSC-Hep): > 30 µM
effect on C/EBPα mRNA level (C/EBPα mRNA expression; relative to TG/FA): no effect
effect on CDK2 gene expression (CDK2 gene expression): no effect
effect on CDK4 mRNA level (CDK4 gene expression): no effect
effect on EP300 gene expression (EP300 gene expression): no effect
pXC50 CDK1 (CDK1): 7.61
pXC50 CDK2 (CDK2): 8.24

CNC(=O)c1nn(C)c2c1C(C)(C)Cc1cnc(Nc3ccc(N4CCN(C)CC4)cc3)nc1-2 [C16, Milciclib]
IC50 (hiPSC-Hep): 16.6 µM
EC50 (hiPSC-Hep; Figure S5 dose-response, read-out: EC50, viable cell count (red line)): 16.6 µM
C/EBPα mRNA expression suppressed by (C/EBPα mRNA expression; 5 µM): 47%
effect on CDK2 gene expression (CDK2 gene expression): overall increase
CDK4 gene expression suppressed to (CDK4 gene expression; 5 µM): ~34%
effect on EP300 gene expression (EP300 gene expression): not significantly affected
pXC50 CDK1 (CDK1): 6.84
pXC50 CDK2 (CDK2): 7.60
